Common to all, as to settings: 50 μl of 1 U/ml enzyme, 10 minutes
The target of one test is T1, CEPase (CEPase Type IV) (Enterobacter cloacae, UniProt P05364).
T1 construct: purchased Sigma chemical Co. CEPase Type IV; host or cells: isolated from E. cloacae
The experiment in a line: Paper disk colour-change test, reactivity against β-lactamases (CEPase). Type of test: biochemical, E. cloacae. Details: key: −: negative; +: positive; ++: highly positive. The method, then: (§1) Each of the test compounds is dissolved in dimethyl sulfoxide. Paper disks with a diameter of 8 mm containing the test compounds in an amount of 5 or 25 μg per disk were prepared and dried in air. Each of these disks was added dropwise with a solution of β-lactamases (50 μl) prepared to a concentration of 1 U/ml with distilled water and allowed for 10 minutes.
(§2) PCase is an enzyme isolated from B. cereus (production of Sigma Chemical Co. :PCase Type I); and CEPase, from E. cloacae (production of Sigma chemical Co. :CEPase Type IV).

The subject of another test is ESBL. The experiment in a line: Paper disk colour-change test, reactivity against β-lactamases (ESBL). Type of test: biochemical. More on the design: key to Reactivity against β-lactamases: ESBL: −: negative; +: positive; ++: highly positive. The protocol: as §1
For the next test, the system named is PCase (PCase Type I). As to the kind of experiment: Paper disk colour-change test, reactivity against β-lactamases (PCase). Type of test: biochemical, B. cereus. More on the design: key: −: negative; +: positive; ++: highly positive. The method, then: as §1, §2

Molecules are shown by their SMILES.

T1 sequence (P05364 21-381): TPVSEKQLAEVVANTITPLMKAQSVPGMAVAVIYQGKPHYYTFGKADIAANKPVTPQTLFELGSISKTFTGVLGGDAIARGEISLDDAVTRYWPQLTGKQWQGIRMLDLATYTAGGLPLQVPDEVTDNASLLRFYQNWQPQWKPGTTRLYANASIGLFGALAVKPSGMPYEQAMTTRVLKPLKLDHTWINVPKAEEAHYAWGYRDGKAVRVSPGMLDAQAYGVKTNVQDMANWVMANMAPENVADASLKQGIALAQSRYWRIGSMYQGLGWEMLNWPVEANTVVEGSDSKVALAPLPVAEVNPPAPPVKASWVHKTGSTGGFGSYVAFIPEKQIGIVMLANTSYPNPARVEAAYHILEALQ

For `O=C(Cc1cccs1)NC1C(=O)N2C(C(=O)O)=C(C=Cc3ccc([N+](=O)[O-])cc3[N+](=O)[O-])CS[C@H]12` (stereo partly shown) [compound A, 3-(2,4-dinitrostyryl)-7-(2-thienylacetamido)-3-cephem-4-carboxylic acid, reference compound], the “Reactivity against β-lactamases: CEPase” value on CEPase (CEPase Type IV) (content 5 μg/disk) is “++”. Moreover, in the test with ESBL (content 5 μg/disk), the “Reactivity against β-lactamases: ESBL” value is recorded as “++” and the color change entry is given as “pale yellow → red”. In the test with PCase (PCase Type I) (content 5 μg/disk), the “Reactivity against β-lactamases: PCase” value is on record as “++”.

On to `CC(C)(ON=C(C(=O)NC1C(=O)N2C(C(=O)O)=C(C=Cc3ccc([N+](=O)[O-])cc3[N+](=O)[O-])CS[C@H]12)c1csc(N)n1)C(=O)O` (stereo partly shown) [compound 1, 7-[2-(2-aminothiazol-4-yl)-2-(1-carboxy-1-methylethoxyimino)acetamido]-3-(2,4-dinitrostyryl)-3-cephem-4-carboxylic acid], for which, on CEPase (CEPase Type IV) (content 5 μg/disk), the “Reactivity against β-lactamases: CEPase” value is “−”. Besides, in the test with ESBL (content 5 μg/disk), the “Reactivity against β-lactamases: ESBL” value was “++” and the color change result was “pale yellow → red”. Also, in the test with PCase (PCase Type I) (content 5 μg/disk), the “Reactivity against β-lactamases: PCase” value was “−”.

In the case of `CC(C)(ON=C(C(=O)NC1C(=O)N2C(C(=O)O)=C(C=Cc3ccc(C#N)cc3)CS[C@H]12)c1csc(N)n1)C(=O)O` (stereo partly shown) [compound 3, 7-[2-(2-aminothiazol-4-yl)-2-(1-carboxy-1-methylethoxyimino)acetamido]-3-(4-cyanostyryl)-3-cephem-4-carboxylic acid], the “Reactivity against β-lactamases: CEPase” value on CEPase (CEPase Type IV) (content 25 μg/disk) was “−”. In addition, in the test with ESBL (content 25 μg/disk), the “Reactivity against β-lactamases: ESBL” value is recorded as “+” and the color change entry is given as “pale yellow → golden”. For the same compound, the “Reactivity against β-lactamases: PCase” value with PCase (PCase Type I) (content 25 μg/disk) was “−”.

Turning to `CC(C)(ON=C(C(=O)NC1C(=O)N2C(C(=O)O)=C(C=Cc3ccc([N+](=O)[O-])cc3)CS[C@H]12)c1csc(N)n1)C(=O)O` (stereo partly shown) [compound 2, 7-[2-(2-aminothiazol-4-yl)-2-(1-carboxy-1-methylethoxyimino)acetamido]-3-(4-nitrostyryl)-3-cephem-4-carboxylic acid], the “Reactivity against β-lactamases: CEPase” value at CEPase (CEPase Type IV) (content 5 μg/disk) is listed as “−”. In addition, in the test with ESBL (content 5 μg/disk), the “Reactivity against β-lactamases: ESBL” value is recorded as “+” and the color change result is reported as “pale yellow → orange”. In addition, the “Reactivity against β-lactamases: PCase” value with PCase (PCase Type I) (content 5 μg/disk) is “−”.

Regarding `Nc1nc(C(=NOCC(=O)O)C(=O)NC2C(=O)N3C(C(=O)O)=C(C=Cc4ccc([N+](=O)[O-])cc4[N+](=O)[O-])CS[C@H]23)cs1` (stereo partly shown) [compound 5, 7-[2-(2-aminothiazol-4-yl)-2-carboxymethoxyiminoacetamido]-3-(2,4-dinitrostyryl)-3-cephem-4-carboxylic acid], the “Reactivity against β-lactamases: CEPase” value on CEPase (CEPase Type IV) (content 5 μg/disk) is recorded as “−”. Moreover, in the test on ESBL (content 5 μg/disk), the “Reactivity against β-lactamases: ESBL” value is “++” and the color change result is reported as “pale yellow → red”. The “Reactivity against β-lactamases: PCase” value in the test on PCase (PCase Type I) (content 5 μg/disk) is listed as “−”.

For the compound `Nc1nc(C(=NOCC(=O)O)C(=O)NC2C(=O)N3C(C(=O)O)=C(C=Cc4ccc([N+](=O)[O-])cc4)CS[C@H]23)cs1` (stereo partly shown) [compound 6, 7-[2-(2-aminothiazol-4-yl)-2-carboxymethoxyiminoacetamido]-3-(4-nitrostyryl)-3-cephem-4-carboxylic acid], the “Reactivity against β-lactamases: CEPase” value on CEPase (CEPase Type IV) (content 5 μg/disk) is given as “−”. In addition, in the test with ESBL (content 5 μg/disk), the “Reactivity against β-lactamases: ESBL” value was “++” and the color change result is “pale yellow → orange”. In the test with PCase (PCase Type I) (content 5 μg/disk), the “Reactivity against β-lactamases: PCase” value is “−”.

Turning to `CON=C(C(=O)NC1C(=O)N2C(C(=O)O)=C(C=Cc3ccc([N+](=O)[O-])cc3)CS[C@H]12)c1csc(N)n1` (stereo partly shown) [compound 4, 7-[2-(2-aminothiazol-4-yl)-2-methoxyiminoacetamido]-3-(4-nitrostyryl)-3-cephem-4-carboxylic acid], on CEPase (CEPase Type IV) (content 5 μg/disk), the “Reactivity against β-lactamases: CEPase” value is recorded as “−”. Moreover, in the test on ESBL (content 5 μg/disk), the “Reactivity against β-lactamases: ESBL” value is “++” and the color change entry is “pale yellow → orange”. For the same compound, the “Reactivity against β-lactamases: PCase” value in the test on PCase (PCase Type I) (content 5 μg/disk) was “−”.

(Values after patent publication US6897304B2, “Cephem compounds and ESBL-detecting reagents containing the same” (Zenyaku Kogyo Kabushiki Kaisha, priority 2000, dated 2005).)
